Results from US20080090788A1, “Chemical Compounds” (priority 2005, published 2008).

Tested on: NF-kB
Assay: NF-kB luciferase reporter activity in LPS-stimulated U937-kBluc cells
Type: cell-based, human
Conditions: for IC50: Homo sapiens, U937-kBluc cells, LPS 0.3 μg/ml, 6 hours, mean of duplicate determinations ±SD, read-out: IC50 for inhibition of LPS-induced NF-kB activity
Method: U937-kBluc cells were cultured in a 96 well plate (2×10^4 cells in 100 μl in each well) and stimulated with 0.3 μg/ml LPS (lipopolysaccaride; Sigma Aldrich). After 6 hours, cells were collected and luciferase activity determined using the luclite reagent (Perkin Elmer UK, Beaconsfield, UK) and a Packard TopCount (Perkin Elmer), as described by the manufacturer. To determine the effect of SFZ and analogues, various concentrations of each compound or an equivalent amount of DMSO as a solvent control were added 1 hour prior to addition of LPS. Each determination was made in triplicate. A cell line containing an NF-kB reporter construct was used to determine the effects of SFZ analogues on NF-kB activity. Cells were treated with LPS to induce NF-kB activity in the presence or absence of each compound, or DMSO as a solvent control, and luciferase activity analysed as a measure of NF-kB dependent transcription (FIG. 1). […] U937-kBluc cells were treated with LPS to activate NF-kB in the presence of increasing concentrations of SFZ, derivatives (3a-f), or DMSO as a solvent control. For each concentration of compound, the percentage inhibition of luciferase activity relative to cells treated with an equivalent amount of DMSO was calculated. (A) Representative dose response experiment (♦, 3a; ▪, SFZ). Each data point is the mean of triplicate samples (±SEM). (B) Detailed dose response assays were performed for compounds which gave >50% inhibition at 2 mM. The mean IC50 value (±SD) for inhibition of LPS-induced NF-kB activity is derived from 2 independent experiments, each performed in triplicate.

Compound | IC50 [µM] | improved inhibitory activity relative to SFZ (NF-kB inhibition, LPS treated U937 cells) [fold]
COc1ccc(CNS(=O)(=O)c2ccc(/N=N/c3ccc(O)c(C(=O)O)c3)cc2)cc1 [Compound 3a, 2-hydroxy-5-[4-(4-methoxy-benzylsulfamoyl)-phenylazo]-benzoic acid] | 150 ± 27 | 7
Cc1cc(/N=N/c2ccc(S(=O)(=O)NCc3ccc(C(F)(F)F)cc3)cc2)cc(C(=O)O)c1O [Compound 3e, 2-hydroxy-3-methyl-5-[4-(4-trifluoromethyl-benzylsulfamoyl)-phenylazo]-benzoic acid] | 127 ± 19 | 
O=C(O)c1cc(/N=N/c2ccc(S(=O)(=O)NCc3ccc(C(F)(F)F)cc3)cc2)ccc1O [Compound 3f, 2-hydroxy-5-[4-(4-trifluoromethyl-benzylsulfamoyl)-phenylazo]-benzoic acid] | 89 ± 26 | 
O=C(O)c1cc(/N=N/c2ccc(S(=O)(=O)Nc3ccccn3)cc2)ccc1O [SFZ, Sulfasalazine, reference compound] | 1190 ± 96 | 
